Literature values in patent publication US6660296B2, “Sustained-release microgranules containing diltiazem as active principle” (Laboratories des Produits Ethiques Ethypharim, priority 1995, dated 2003).

Conditions: neutral or basic pH; Diltiazem or its pharmaceutically acceptable salts

In the case of `COc1ccc([C@@H]2Sc3ccccc3N(CCN(C)C)C(=O)[C@@H]2OC(C)=O)cc1` [Diltiazem], the Solubility is listed as “sparingly soluble”.
